According to PMC6892925, “Development of Novel Silyl Cyanocinnamic Acid Derivatives as Metabolic Plasticity Inhibitors for Cancer Treatment” (Scientific Reports, 2019):

What was measured:
healthy CD-1 mice = test: In vivo systemic toxicity study; design: species or system mouse; conditions: once daily 25 mg/kg, 16-day treatment period
Procedure: Based on in vitro cell proliferation inhibition, MCT1 inhibition, and effects on glycolysis/mitochondrial function, we advanced candidate compounds 2a and 2b for translational in vivo safety and efficacy studies. […] Next, an MCT1 expressing WiDr tumor xenograft model was chosen to evaluate the efficacy of 2a and 2b. After tumors were inoculated, they were allowed to reach ~150 mm^3 volume, and mice were randomly divided into three groups. Group-1 was administered 25 mg/kg (i.p.) of compound 2a, group-2 was administered with 25 mg/kg (i.p.) of 2b, and group-3 was designated as control group and given an injection of vehicle. Treatment was continued for 16 days, and tumor volumes were recorded. […] During the two-week treatment period, there was no significant loss of body weights in mice between treated and control groups. […] At the end of the study, all the tumors were resected, and the tumor mass was weighed (Fig. 6D).
Five-week-old healthy CD-1 mice (Charles River) were obtained and acclimatized for one week prior to treatment. Mice (n = 6) were grouped randomly based on average body weight. […] Mice body weights were recorded daily as a proxy for animal health and were also examined for proper activity and grooming patterns. […]

MCF7 cell line = test: MTT cell proliferation inhibition assay; conditions: Homo sapiens, MCF7, read-out: MTT IC50
Procedure: (§3) Human triple-negative breast cancer MDA-MB-231 cells (ATCC) were grown in DMEM supplemented with 10% FBS (Atlanta Biologicals) and penicillin-streptomycin (50U/ml, 50 µg/ml, Invitrogen). Human colorectal adenocarcinoma WiDr cells (ATCC) were cultured in MEM medium supplemented with 10% FBS and penicillin-streptomycin. […] Murine metastatic breast cancer 4T1 cells were grown in RPMI-1640 supplemented with 10% FBS and penicillin-streptomycin. Human estrogen receptor positive breast cancer MCF7 cells (Masonic Cancer Center, University of Minnesota) were grown in MEM supplemented with 6% FBS, EGF (0.01 µg/ml), NEAA, HDC (1 µg/ml), insulin (10 µg/ml), HEPES (12 mM) and sodium pyruvate (1 mM).
(§4) Cell proliferation inhibition was evaluated using 3-(4,5-dimethylthiazol-2-yl)-2,5-diphenyl tetrazolium bromide (MTT) assay as reported previously[19].

[1] = tested on: MCT1 expressing WiDr cell line; test: Seahorse XFe96 mitochondrial stress test (OCR); assay type: cell-based, human; conditions: 30 µM, vs DMSO control
Procedure: (§1) To assess mitochondrial stress, four parameters including maximal respiration, proton leak, ATP production, and spare respiratory capacity were measured. ATP production via OxPhos is dependent on mitochondrial integrity and can be measured directly via the oxygen consumption rate (OCR). Time-course OCR plots from WiDr and MDA-MB-231 cells were used to calculate 2a and 2b treatment-induced changes in specified parameters following the addition of various mitochondrial targeting agents (Fig. 5A,B). […] Spare respiratory capacity is a value that is not directly linked to mitochondrial damage but represents the cells ability to respond to rapid ATP demands.
(§2) 20,000 cells/well were plated in 96-well Seahorse plates (Agilent, part no. 101085-004) and incubated 16–24 hours at 37 °C at 5% CO2. Flux pack sensors (Agilent, part no. 102416-100) were hydrated with XF calibrant solution (Agilent, part no. 100840-000) overnight at 37 °C in a non-CO2 incubator. The serum free assay media was prepared from Seahorse base medium (Agilent, part no. 102353-100) enriched with glutamine (1 mM) and sodium pyruvate (1 mM). The pH of the media was adjusted to 7.4. For glycolysis stress test the serum free assay media was used. For the mitochondrial stress test glucose (10 mM) was added to make an enriched serum free assay media. For both stress tests an 8X stock concentration of test compounds in their respective media was prepared for microplate injections in port A. Stock solutions of glucose (90 mM), oligomycin (10 μM), and 2-deoxyglucose (Chem Impex, 550 mM) were prepared such that their final working concentrations are 10 mM, 1 μM and 50 mM, respectively, for glycolysis stress test. For mitochondrial stress test, stock solutions of oligomycin (9 µM), FCCP (2.5–10 µM, cell line dependent), rotenone + antimycin A (5.5 µM) were prepared such that their final concentrations were 1 µM, 0.25–1 µM, and 0.5 µM, respectively in the enriched test media. Under glycolytic stress test, the cells were treated with test compounds, followed by the addition of glucose, oligomycin and 2-deoxyglucose at 14.29, 33.8, 53.35, 72.87 minutes, respectively. Under mitochondrial stress test, cells were treated with test compounds, followed by the addition of oligomycin, FCCP, and rotenone + antimycin A, at 14.29, 33.8, 53.35, 72.87 minutes, respectively. Extracellular acidification rates (ECAR) and oxygen consumption rates (OCR) were recorded in real-time for glycolysis and mitochondrial stress tests, respectively, using a Seahorse XFe96® analyzer (Agilent). The parameters related to glycolytic and mitochondrial functions were calculated utilizing the Wave 2.4.0 software (Agilent). ATP rate assay experiment was performed using manufactures (Agilent) protocol, and respective mitochondrial and glycolytic ATP rates were normalized to protein (BCA assay) and calculated using Wave 2.4.0 software.

[2] = tested on: MCT4 expressing MDA-MB-231 cell line; test: Seahorse XFe96 mitochondrial stress test (OCR); assay type: cell-based, human; conditions: 30 µM, MDA-MB-231, vs DMSO control
Procedure: as §1, §2

4T1 cell line = test: MTT cell proliferation inhibition assay; conditions: Mus musculus, 4T1, read-out: MTT IC50
Procedure: as §3, §4

MDA-MB-231 cell line = test: MTT cell proliferation inhibition assay; conditions: Homo sapiens, MDA-MB-231, read-out: MTT IC50
Procedure: as §3, §4

WiDr cell line = test: MTT cell proliferation inhibition assay; conditions: Homo sapiens, read-out: MTT IC50
Procedure: as §3, §4

| Structure (SMILES) | systemic toxicity / tolerability (body weight gains, behavior, grooming) (healthy CD-1 mice) | IC50 (MCF7 cell line) | FCCP induced maximal respiration (OCR) [1] | oxygen consumption for mitochondrial ATP production (OCR) [1] | proton leak (OCR) [1] | spare respiratory capacity (OCR) [1] | FCCP induced maximal respiration (OCR) [2] | oxygen consumption for mitochondrial ATP production (OCR) [2] | proton leak (OCR) [2] | spare respiratory capacity (OCR) [2] | IC50 (4T1 cell line) | IC50 (MDA-MB-231 cell line) | IC50 (WiDr cell line) |
| --- | --- | --- | --- | --- | --- | --- | --- | --- | --- | --- | --- | --- | --- |
| CC(C)(C)[Si](Oc1ccc(/C=C(\C#N)C(=O)O)cc1)(c1ccccc1)c1ccccc1 [2a] | well tolerated | 39 ± 3 µM | significantly decreased | significantly decreased | significant increase | significant decrease | significantly decreased | significantly decreased | significant increase | significant decrease | 56 ± 1 µM | 93 µM | 41 ± 2 µM |
| CC(C)(C)[Si](OCCOc1ccc(/C=C(\C#N)C(=O)O)cc1)(c1ccccc1)c1ccccc1 [2b] | well tolerated | 35 ± 3 µM | significantly decreased | significantly decreased | significant increase | significant decrease | significantly decreased | significantly decreased | significant increase | significant decrease | 22 ± 1 µM | 71 ± 1 µM | 6 ± 1 µM |
